Assay results published in patent US11802305B2, “Detection processes using sites of chromosome interaction” (Oxford Biodynamics PLC, priority 2015, dated 2023).

Experiments:
MYD88 locus = settings: 72 hr treatment with TCP (1 uM), AML cell lines THP-1 and MV4-11, relative to untreated cells
Method: Two AML (acute myeloid leukemia) cell lines THP-1 and MV4-11 were tested with the above compound. […] The positions across the gene have been created and selected based on restriction sites and other features of detection and primer efficiency and were then analysed for interactions. […] Below are the PCR EpiSwitch™ marker results for the MyD88 locus for cell lines THP-1 and MV4-11. FACS analysis was used to sort for the expression of CD11b± cells, as an indicator of differentiation.
However, epigenetic changes observed for chromosome signatures are clean to follow a binary format of 0 or 1.

[1] = cited from earlier work

Row | Structure (SMILES) | fold change at MYD88 locus (GEX and EpiSwitch) (MYD88 locus) | effect on lifespan of ALS patients [1]
1 | N[C@@H]1C[C@H]1c1ccccc1 (racemic) [TCP, tranylcypromine] | 1.5 fold | –
2 | Nc1nc2ccc(OC(F)(F)F)cc2s1 [riluzole] | – | modest increase in lifespan
